From PubChem BioAssay AID434942 (Johns Hopkins Ion Channel Center, 2010)

Molecular target: Short transient receptor potential channel 4 (Mus musculus) (UniProt Q9QUQ5)
Assay: mouse TRPC4 channel inhibitors, dose response, cell-based, HEK293 TRPC4/mu-opioid, Fluo-4 calcium (AID 434942);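 note: potency of inhibitors blocking the DAMGO-evoked TRPC4 calcium rise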
Conditions: HEK293 TRPC4/mu-opioid cells, DAMGO-evoked Fluo-4 calcium ratio

Sequence of Short transient receptor potential channel 4 (Mus musculus) (Q9QUQ5 whole entry, looked up): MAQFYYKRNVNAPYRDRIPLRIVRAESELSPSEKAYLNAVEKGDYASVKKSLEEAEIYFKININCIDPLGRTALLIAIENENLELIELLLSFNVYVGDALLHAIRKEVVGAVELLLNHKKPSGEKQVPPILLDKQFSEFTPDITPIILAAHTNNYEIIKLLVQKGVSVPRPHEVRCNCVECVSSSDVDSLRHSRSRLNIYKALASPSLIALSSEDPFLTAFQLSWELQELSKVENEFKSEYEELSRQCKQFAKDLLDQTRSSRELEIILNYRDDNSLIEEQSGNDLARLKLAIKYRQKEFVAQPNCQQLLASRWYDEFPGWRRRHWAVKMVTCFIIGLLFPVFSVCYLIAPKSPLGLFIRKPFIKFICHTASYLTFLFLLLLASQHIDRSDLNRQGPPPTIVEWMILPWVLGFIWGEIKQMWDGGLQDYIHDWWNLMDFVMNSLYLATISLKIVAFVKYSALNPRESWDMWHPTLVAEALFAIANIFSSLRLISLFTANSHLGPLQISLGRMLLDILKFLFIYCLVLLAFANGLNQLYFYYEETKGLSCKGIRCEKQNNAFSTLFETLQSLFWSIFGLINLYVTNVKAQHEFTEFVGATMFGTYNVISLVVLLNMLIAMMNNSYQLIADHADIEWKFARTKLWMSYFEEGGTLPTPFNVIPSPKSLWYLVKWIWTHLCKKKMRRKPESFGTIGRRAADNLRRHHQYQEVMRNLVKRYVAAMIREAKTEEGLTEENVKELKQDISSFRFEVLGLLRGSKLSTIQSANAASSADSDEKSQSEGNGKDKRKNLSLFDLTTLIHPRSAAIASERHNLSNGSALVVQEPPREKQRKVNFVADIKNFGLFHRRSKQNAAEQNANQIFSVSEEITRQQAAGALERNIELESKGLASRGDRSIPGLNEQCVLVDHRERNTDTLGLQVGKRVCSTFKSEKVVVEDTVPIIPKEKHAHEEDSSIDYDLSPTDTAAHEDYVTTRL

With `CC1Cc2ccccc2N1C(=O)CSc1nc2c(c(=O)n(C)c(=O)n2C)n1Cc1ccccc1` (configuration not stated) the IC50 was 2110 nM.
`CC(=O)Nc1ccc(C2(c3ccc(NC(C)=O)cc3)C(=O)Nc3ccccc32)cc1` gave an IC50 of 1500 nM.
